Entries after “also recorded” stand apart in the source; their conditions may differ.

The subject of assay [1] is pp-VSV-SARS-CoV-2. Briefly: Adhesion of pp-VSV-SARS-CoV-2 on Vero cells, flow cytometry with anti-spike S1. The class given is cell-based. The settings on record: 20 minutes infection in presence of lipid. In general terms: A flow cytometer gives signals particle by particle.
Assay [2] relates to lymphocytic choriomeningitis virus (LCMV). The class given is cell-based, LCMV strain WE. The settings on record: 24 hours.
Assay [3] deals with T1, recombinant ACE2 (Homo sapiens, UniProt Q9BYF1).
T1 construct: purchased Abcam ab273687
Briefly: Binding of lipids to immobilized recombinant ACE2. The settings on record: sphingosine at 2 μM.

Assay [4] relates to vesicular stomatitis virus (VSV). The class given is cell-based, VSV strain Indiana. To be noted: 24 hours.
Assay [5] relates to lymphocytic choriomeningitis virus (LCMV). The class given is cell-based, LCMV strain WE.

T1 sequence (Q9BYF1 18-805): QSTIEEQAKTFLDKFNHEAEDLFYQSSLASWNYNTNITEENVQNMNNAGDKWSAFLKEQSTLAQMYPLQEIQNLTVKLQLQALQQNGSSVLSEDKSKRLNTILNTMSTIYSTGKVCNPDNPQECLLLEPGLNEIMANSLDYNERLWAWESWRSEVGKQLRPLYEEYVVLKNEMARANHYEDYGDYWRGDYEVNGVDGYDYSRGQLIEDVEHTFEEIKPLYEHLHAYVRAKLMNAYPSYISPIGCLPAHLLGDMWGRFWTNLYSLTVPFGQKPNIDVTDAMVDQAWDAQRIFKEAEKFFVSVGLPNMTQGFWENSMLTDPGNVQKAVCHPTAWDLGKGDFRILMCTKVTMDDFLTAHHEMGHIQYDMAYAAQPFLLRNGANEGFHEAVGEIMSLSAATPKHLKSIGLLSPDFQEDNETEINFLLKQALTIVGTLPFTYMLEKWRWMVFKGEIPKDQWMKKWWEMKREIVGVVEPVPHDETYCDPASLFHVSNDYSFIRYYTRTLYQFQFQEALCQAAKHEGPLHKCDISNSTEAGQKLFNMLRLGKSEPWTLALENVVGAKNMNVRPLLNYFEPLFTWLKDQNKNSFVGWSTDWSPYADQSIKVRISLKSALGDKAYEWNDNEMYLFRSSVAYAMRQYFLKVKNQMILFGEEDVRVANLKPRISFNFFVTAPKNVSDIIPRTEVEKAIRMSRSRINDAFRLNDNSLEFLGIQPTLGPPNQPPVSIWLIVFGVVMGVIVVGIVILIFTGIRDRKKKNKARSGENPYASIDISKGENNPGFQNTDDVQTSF

As to `CCCCCCCCCCCCC/C=C/[C@@H](O)[C@H](CO)NC(=O)CCCCCCCCCCCCCCC` [C16-ceramide], the “binding of pp-VSV-SARS-CoV-2 to the cell surface” value (“binding … to the cell surface” for short) in assay [1] is given as “None of the other lipids had an effect”.
With `Oc1ccc(Nc2nc(-c3ccc(Cl)cc3)cs2)cc1` [SKII, [2-(p-hydroxyanilino)-4-(p-chlorophenyl)thiazole]], the “spreading of the virus (LCMV-infected cells)” value in assay [2] is given as “inhibits spreading of the virus; also recorded: inhibits the spreading of the virus”.
Turning to `CCCCCCCCCCCCC/C=C/[C@@H](O)[C@@H](N)COP(=O)(O)O` [sphingosine 1-phosphate], the “binding … to the cell surface” value in assay [1] is “None of the other lipids had an effect”. Also, the “binding of lipid to immobilized recombinant ACE2 (beads)” value (“binding of lipid” below) in assay [3] was “showed no interation with the beads”.
In the case of cardiolipin, the “binding … to the cell surface” value in assay [1] was “None of the other lipids had an effect”. Further, in assay [3], the “binding of lipid” value was “showed no interation with the beads”.
For the compound ceramide, the “binding of lipid” value in assay [3] is reported as “showed no interation with the beads”.
As for lactosyl-ceramide, the “binding … to the cell surface” value in assay [1] is given as “None of the other lipids had an effect”.
Turning to phosphatidyl-ethanolamine, the “binding of lipid” value in assay [3] is given as “showed no interation with the beads”.
phosphatidylcholine: in assay [1], the “binding … to the cell surface” value is “None of the other lipids had an effect”. Also, in assay [3], the “binding of lipid” value is recorded as “showed no interation with the beads”.
sphingomyelin: the “binding … to the cell surface” value in assay [1] was “None of the other lipids had an effect”. For the same compound, the “binding of lipid” value in assay [3] is on record as “showed no interation with the beads”.
With sphingomyelinase, the “propagation of VSV (number of plaques)” value in assay [4] is “inhibits the propagation of VSV”. Further, the “propagation of LCMV (infectious LCMV particles in the supernatant)” value in assay [5] is “reduced propagation of LCMV; also recorded: inhibits the propagation of LCMV”.

The values above are taken from patent publication US11298412B2, “Sphingoid compounds for prophylaxis and/or therapy of coronaviridae infection” (priority 2020, dated 2022).
